Here are results for 1 compound from publication PMC9915920, “The Antidepressant Paroxetine Reduces the Cardiac Sodium Current” (International Journal of Molecular Sciences, 2023).

The assay deals with T1, cardiac voltage-gated sodium channel (NaV1.5) (Homo sapiens, UniProt Q14524).
T1 construct: gene SCN5A; human NaV1.5 channels stably expressed in HEK-293 cells, without β-subunits
The assay can be described thus: whole-cell patch clamp, peak NaV1.[…] current at −[…] mV, HEK-293 cells. It counts as cell-based.

T1 sequence (Q14524 whole entry): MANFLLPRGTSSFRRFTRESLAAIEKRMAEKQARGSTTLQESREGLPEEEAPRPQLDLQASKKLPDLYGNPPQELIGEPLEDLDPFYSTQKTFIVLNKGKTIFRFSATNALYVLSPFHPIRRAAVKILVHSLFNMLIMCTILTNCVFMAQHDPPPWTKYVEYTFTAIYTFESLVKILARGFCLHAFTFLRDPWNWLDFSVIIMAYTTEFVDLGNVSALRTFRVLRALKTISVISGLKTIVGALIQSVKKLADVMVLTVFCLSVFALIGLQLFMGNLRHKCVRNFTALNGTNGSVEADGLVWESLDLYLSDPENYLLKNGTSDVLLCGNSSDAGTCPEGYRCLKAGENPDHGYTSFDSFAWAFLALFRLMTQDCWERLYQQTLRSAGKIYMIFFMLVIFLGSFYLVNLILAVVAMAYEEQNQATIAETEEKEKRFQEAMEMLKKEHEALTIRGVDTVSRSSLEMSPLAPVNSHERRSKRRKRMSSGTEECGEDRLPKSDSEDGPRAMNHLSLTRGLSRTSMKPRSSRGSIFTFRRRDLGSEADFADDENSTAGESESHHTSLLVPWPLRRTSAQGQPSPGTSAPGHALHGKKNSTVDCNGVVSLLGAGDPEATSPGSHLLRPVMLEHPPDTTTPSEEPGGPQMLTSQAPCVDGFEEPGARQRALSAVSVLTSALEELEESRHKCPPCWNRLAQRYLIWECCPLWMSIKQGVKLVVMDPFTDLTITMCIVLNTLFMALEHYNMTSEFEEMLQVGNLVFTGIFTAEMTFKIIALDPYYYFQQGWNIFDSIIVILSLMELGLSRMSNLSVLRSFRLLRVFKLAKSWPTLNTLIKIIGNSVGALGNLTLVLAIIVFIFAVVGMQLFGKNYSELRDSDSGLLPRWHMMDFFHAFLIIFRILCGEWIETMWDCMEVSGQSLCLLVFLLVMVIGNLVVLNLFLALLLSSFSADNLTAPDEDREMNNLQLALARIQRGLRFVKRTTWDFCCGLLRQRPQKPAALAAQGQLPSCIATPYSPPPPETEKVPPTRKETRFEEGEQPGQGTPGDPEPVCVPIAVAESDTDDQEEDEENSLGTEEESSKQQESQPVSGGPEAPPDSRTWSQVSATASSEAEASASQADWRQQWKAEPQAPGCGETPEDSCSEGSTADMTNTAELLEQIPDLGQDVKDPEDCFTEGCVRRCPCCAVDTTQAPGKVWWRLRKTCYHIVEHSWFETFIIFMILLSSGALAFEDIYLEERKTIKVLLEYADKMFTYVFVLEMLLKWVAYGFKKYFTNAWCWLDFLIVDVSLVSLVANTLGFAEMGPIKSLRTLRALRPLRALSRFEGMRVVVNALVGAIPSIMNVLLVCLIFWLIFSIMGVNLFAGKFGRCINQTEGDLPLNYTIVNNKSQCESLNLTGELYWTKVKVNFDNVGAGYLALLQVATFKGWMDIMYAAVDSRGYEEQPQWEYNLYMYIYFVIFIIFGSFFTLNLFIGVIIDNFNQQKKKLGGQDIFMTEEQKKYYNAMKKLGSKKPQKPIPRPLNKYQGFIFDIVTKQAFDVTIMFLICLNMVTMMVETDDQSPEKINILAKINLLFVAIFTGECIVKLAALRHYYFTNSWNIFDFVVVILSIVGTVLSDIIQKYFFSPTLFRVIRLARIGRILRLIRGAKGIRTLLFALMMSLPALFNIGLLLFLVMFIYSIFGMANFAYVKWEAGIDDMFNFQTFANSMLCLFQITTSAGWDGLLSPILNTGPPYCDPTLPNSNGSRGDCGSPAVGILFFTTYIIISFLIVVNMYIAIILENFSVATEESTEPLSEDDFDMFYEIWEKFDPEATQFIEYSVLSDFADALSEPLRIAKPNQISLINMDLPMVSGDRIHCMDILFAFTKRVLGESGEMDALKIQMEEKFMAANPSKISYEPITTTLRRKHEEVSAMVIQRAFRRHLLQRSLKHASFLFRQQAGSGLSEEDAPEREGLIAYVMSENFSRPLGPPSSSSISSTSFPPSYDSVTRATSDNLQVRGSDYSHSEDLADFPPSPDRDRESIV

The term IC50 denotes the point on the concentration scale where inhibition reaches its midpoint. `Fc1ccc([C@@H]2CCNC[C@H]2COc2ccc3c(c2)OCO3)cc1` [paroxetine] returned an IC50 of 6.8 ± 1.1 µM.
